# Columns and labels:
# [1] = Inhibition of B0AT1 (unknown origin) by FLIPR assay; set-up: species or system Homo sapiens
# [2] = Inhibition of B0AT1 (unknown origin) by radiolabled uptake assay; set-up: species or system Homo sapiens
# [3] = Cmax in C57BL/6 mouse at 3 mg/kg, po; format: ADME, organism-based; set-up: route oral, dose 3 mg/kg; conditions: in vivo
# [4] = tested on: Mus musculus; assay: Anti-obesity activity in C57BL/6J mouse model of diet-induced obesity assessed as reduction in area under curve at 25 mg/kg, po dosed once daily for 28 days by insulin tolerance test; format: functional; set-up: scale not given: the % may be the effect or the level left; conditions: time 28 day
# [5] = Volume of distribution at steady state in C57BL/6 mouse at 1 mg/kg, iv; format: ADME, organism-based; conditions: in vivo, read-out: Vdss
# [6] = Metabolic stability in dog liver microsomes; format: ADME, Canis lupus familiaris, Microsome
# [7] = AUC (0 to t) in C57BL/6 mouse at 1 mg/kg, iv; format: ADME, organism-based; set-up: dose 1 mg/kg; conditions: in vivo
# [8] = molecular target: Cytochrome P450 2C9 (Homo sapiens, UniProt P11712); assay: Inhibition of CYP2C9 (unknown origin); format: ADME
# [9] = MRT in C57BL/6 mouse at 3 mg/kg, po; format: ADME, organism-based; conditions: in vivo
# [10] = Metabolic stability in rat liver microsomes; format: ADME, Microsome
# [11] = Bioavailability in C57BL/6 mouse at 1 mg/kg, iv; format: ADME, organism-based; conditions: in vivo
# [12] = tested on: Mus musculus; assay: Anti-obesity activity in high fat diet induced C57BL/6J mouse model assessed as change in body weight at 25 mg/kg, po dosed once daily for 28 days; format: functional; conditions: time 28 day
# [13] = Half life in C57BL/6 mouse at 3 mg/kg, po; format: ADME, organism-based; conditions: in vivo
# [14] = molecular target: Cytochrome P450 2C19 (Homo sapiens, UniProt P33261); assay: Inhibition of CYP2C19 (unknown origin); format: ADME
# [15] = molecular target: T1, Cytochrome P450 2C8 (Homo sapiens, UniProt P10632); assay: Inhibition of CYP2C8 (unknown origin); format: ADME
# T1 sequence (P10632 whole entry): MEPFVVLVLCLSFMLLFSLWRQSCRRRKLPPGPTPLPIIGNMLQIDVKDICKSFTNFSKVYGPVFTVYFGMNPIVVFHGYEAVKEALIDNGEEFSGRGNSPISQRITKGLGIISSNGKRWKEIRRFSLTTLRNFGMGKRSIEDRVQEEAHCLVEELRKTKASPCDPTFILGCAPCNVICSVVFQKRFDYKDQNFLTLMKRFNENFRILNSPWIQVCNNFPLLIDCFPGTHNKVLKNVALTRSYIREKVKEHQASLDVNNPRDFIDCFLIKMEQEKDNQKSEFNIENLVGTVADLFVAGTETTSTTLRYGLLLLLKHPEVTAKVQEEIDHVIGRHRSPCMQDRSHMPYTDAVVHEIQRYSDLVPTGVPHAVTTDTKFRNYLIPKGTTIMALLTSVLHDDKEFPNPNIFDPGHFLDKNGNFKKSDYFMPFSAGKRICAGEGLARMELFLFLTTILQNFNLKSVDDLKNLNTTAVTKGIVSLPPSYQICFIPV
# [16] = Clearance in C57BL/6 mouse at 1 mg/kg, iv; format: ADME, organism-based; conditions: in vivo
# [17] = Metabolic stability in mouse liver microsomes; format: ADME, Microsome
# [18] = Half life in C57BL/6 mouse at 1 mg/kg, iv; format: ADME, organism-based; conditions: in vivo
# [19] = MRT in C57BL/6 mouse at 1 mg/kg, iv; format: ADME, organism-based; conditions: in vivo
# [20] = Metabolic stability in human liver microsomes; format: ADME, Microsome
# [21] = Tmax in C57BL/6 mouse at 3 mg/kg, po; format: ADME, organism-based; conditions: in vivo
# [22] = AUC (0 to t) in C57BL/6 mouse at 3 mg/kg, po; format: ADME, organism-based; set-up: dose 3 mg/kg; conditions: in vivo
# [23] = molecular target: Cytochrome P450 3A4 (Homo sapiens, UniProt P08684); assay: Inhibition of CYP3A4 (unknown origin); format: ADME
# [24] = Initial plasma concentration in C57BL/6 mouse at 1 mg/kg, iv; format: ADME, organism-based
# Cytochrome P450 2C9, sequence (P11712 whole entry): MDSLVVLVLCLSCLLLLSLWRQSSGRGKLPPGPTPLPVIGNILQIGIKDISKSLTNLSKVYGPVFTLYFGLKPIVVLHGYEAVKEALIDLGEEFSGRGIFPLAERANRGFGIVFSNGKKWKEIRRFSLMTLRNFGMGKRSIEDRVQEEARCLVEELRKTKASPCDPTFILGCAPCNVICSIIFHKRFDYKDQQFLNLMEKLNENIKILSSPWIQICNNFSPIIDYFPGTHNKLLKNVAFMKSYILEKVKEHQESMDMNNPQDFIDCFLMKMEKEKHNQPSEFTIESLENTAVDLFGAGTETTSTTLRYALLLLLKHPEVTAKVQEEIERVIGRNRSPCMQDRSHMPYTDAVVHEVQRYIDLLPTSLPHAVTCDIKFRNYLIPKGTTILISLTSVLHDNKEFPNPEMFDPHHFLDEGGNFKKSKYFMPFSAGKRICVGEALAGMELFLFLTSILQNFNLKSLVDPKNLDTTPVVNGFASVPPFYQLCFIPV
# Cytochrome P450 3A4, sequence (P08684 whole entry): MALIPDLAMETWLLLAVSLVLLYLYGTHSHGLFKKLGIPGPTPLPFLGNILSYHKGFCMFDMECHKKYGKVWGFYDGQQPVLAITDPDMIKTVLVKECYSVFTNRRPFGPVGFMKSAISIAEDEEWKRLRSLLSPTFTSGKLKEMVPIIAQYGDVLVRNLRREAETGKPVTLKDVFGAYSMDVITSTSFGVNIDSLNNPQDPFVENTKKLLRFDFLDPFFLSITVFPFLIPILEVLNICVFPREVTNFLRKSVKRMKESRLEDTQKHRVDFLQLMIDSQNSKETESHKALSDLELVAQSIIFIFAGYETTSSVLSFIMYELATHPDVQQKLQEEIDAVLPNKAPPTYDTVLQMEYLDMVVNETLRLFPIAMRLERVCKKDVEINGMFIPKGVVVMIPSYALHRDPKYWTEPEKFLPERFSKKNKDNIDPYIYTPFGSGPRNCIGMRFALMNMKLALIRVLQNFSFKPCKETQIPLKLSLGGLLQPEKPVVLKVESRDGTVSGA
# Cytochrome P450 2C19, sequence (P33261 whole entry): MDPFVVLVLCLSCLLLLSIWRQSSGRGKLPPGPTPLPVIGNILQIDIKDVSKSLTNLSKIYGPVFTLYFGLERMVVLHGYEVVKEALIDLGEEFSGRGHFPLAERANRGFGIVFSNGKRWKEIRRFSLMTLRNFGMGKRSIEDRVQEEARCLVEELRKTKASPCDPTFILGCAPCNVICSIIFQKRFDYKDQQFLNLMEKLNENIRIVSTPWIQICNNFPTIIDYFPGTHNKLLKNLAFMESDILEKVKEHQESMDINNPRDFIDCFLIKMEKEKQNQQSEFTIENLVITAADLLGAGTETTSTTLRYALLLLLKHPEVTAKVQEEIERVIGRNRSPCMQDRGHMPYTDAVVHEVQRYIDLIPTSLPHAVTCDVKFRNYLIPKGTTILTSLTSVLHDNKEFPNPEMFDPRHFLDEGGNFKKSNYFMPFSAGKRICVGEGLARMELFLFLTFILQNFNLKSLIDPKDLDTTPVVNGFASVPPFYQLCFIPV
compound,measurement,setting,value
CN1C2CCC1CC(OC(c1ccccc1)c1ccccc1)C2 (configuration not stated),IC50,[1],44 µM
same,IC50,[2],71 µM
O=S(=O)(Nc1ccc(S(=O)(=O)C(F)(F)F)cc1Oc1ccc(Cl)cc1)c1ccccc1,IC50,[2],> 1 µM
O=S(=O)(Nc1ccc(S(=O)(=O)C(F)(F)F)cc1Nc1ccccc1)c1ccccc1,IC50,[2],0.69 µM
COc1ccc(Oc2cc(S(=O)(=O)C(F)(F)F)ccc2NS(=O)(=O)c2ccccc2)cc1OC,IC50,[2],> 1 µM
CS(=O)(=O)c1ccc(NS(=O)(=O)c2ccccc2)c(Oc2ccccc2)c1,IC50,[2],> 10 µM
COc1ccc(Oc2cc(S(=O)(=O)C(F)(F)F)ccc2NS(=O)(=O)c2ccccc2)cc1,IC50,[2],0.6 µM
COc1cccc(Oc2cc(S(=O)(=O)C(F)(F)F)ccc2NS(=O)(=O)c2ccccc2)c1,IC50,[2],0.46 µM
O=S(=O)(Nc1ccc(S(=O)(=O)C(F)(F)F)cc1Oc1ccccc1)c1ccccc1,IC50,[2],0.19 µM
N=C(NO)c1ccc(NS(=O)(=O)c2ccccc2)c(Oc2ccccc2)c1,IC50,[2],> 10 µM
N#Cc1ccc(Oc2cc(S(=O)(=O)C(F)(F)F)ccc2NS(=O)(=O)c2ccccc2)cc1,IC50,[2],> 1 µM
Cc1cccc(Oc2cc(S(=O)(=O)C(F)(F)F)ccc2NS(=O)(=O)c2ccccc2)c1,IC50,[2],1 µM
NC(c1ccccc1)c1cc(S(=O)(=O)C(F)(F)F)ccc1NS(=O)(=O)c1ccccc1 (configuration not stated),IC50,[2],> 1 µM
O=S(=O)(Nc1ccc(S(=O)(=O)C(F)(F)F)cc1Oc1ccc(Cl)c(Cl)c1)c1ccccc1,IC50,[2],1 µM
Cc1ccc(Oc2cc(S(=O)(=O)C(F)(F)F)ccc2NS(=O)(=O)c2ccccc2)cc1,IC50,[2],> 1 µM
N=C(N)c1ccc(NS(=O)(=O)c2ccccc2)c(Oc2ccccc2)c1,IC50,[2],> 10 µM
Cc1cc(C)cc(Oc2cc(S(=O)(=O)C(F)(F)F)ccc2NS(=O)(=O)c2ccccc2)c1,IC50,[2],0.44 µM
Cc1cc(C(=O)Nc2ccc(Cl)cc2C(F)(F)F)no1,IC50,[1],1.9 µM
same,IC50,[2],3.9 µM
O=S(=O)(Nc1ccc(S(=O)(=O)C(F)(F)F)cc1Oc1cc(F)cc(F)c1)c1ccccc1,Cmax,[3],3770 ng/mL
same,Activity,[4],22.9%
same,Vd,[5],0.35 L/kg
same,Stability,[6],Stable
same,AUC(0-t),[7],16200 ng·h/mL
same,inhibition (INH),[8],Active
same,MRT,[9],6.73 h
same,Stability,[10],Stable
same,IC50,[2],0.035 µM
same,bioavailability,[11],64%
same,Activity,[12],-8.9%
same,half-life,[13],5.39 h
same,inhibition (INH),[14],Active
same,inhibition (INH),[15],Active
same,clearance,[16],1.01 mL/min/kg
same,Stability,[17],Stable
same,half-life,[18],4.05 h
same,MRT,[19],5.74 h
same,Stability,[20],Stable
same,Tmax,[21],2 h
same,AUC(0-t),[22],31300 ng·h/mL
same,inhibition (INH),[23],Active
same,C0,[24],6680 ng/mL
O=S(=O)(Nc1ccc(S(=O)(=O)C(F)(F)F)cc1Sc1ccccc1)c1ccccc1,IC50,[2],0.8 µM
O=S(=O)(Nc1ccc(S(=O)(=O)C(F)(F)F)cc1Oc1cccc(Cl)c1)c1ccccc1,IC50,[2],> 1 µM
O=S(=O)(Nc1ccc(S(=O)(=O)C(F)(F)F)cc1Oc1ccc(F)cc1)c1ccccc1,IC50,[2],0.2 µM
CN(C)c1cccc(Oc2cc(S(=O)(=O)C(F)(F)F)ccc2NS(=O)(=O)c2ccccc2)c1,IC50,[2],> 1 µM
O=S(=O)(Nc1ccc(S(=O)(=O)C(F)(F)F)cc1C(O)c1ccccc1)c1ccccc1 (configuration not stated),IC50,[2],0.32 µM
O=S(=O)(Nc1ccc(S(=O)(=O)C(F)(F)F)cc1OCc1ccccc1)c1ccccc1,IC50,[2],1 µM
c1ccc(CCCN2CCCCC2Cc2ccccc2)cc1 (configuration not stated),IC50,[1],90 µM
same,IC50,[2],78 µM
COC(=O)c1ccc(NS(=O)(=O)c2ccccc2)c(Oc2ccccc2)c1,IC50,[2],> 10 µM
O=S(=O)(Nc1ccc(S(=O)(=O)C(F)(F)F)cc1S(=O)(=O)c1ccccc1)c1ccccc1,IC50,[2],> 1 µM
N#Cc1ccc(NS(=O)(=O)c2ccccc2)c(Oc2ccccc2)c1,IC50,[2],> 10 µM
O=S(=O)(Nc1ccc(F)cc1Oc1ccccc1)c1ccccc1,IC50,[2],> 10 µM
O=C(Nc1ccccc1)c1cc(S(=O)(=O)C(F)(F)F)ccc1NS(=O)(=O)c1ccccc1,IC50,[2],> 1 µM
O=S(=O)(Nc1ccc(S(=O)(=O)C(F)(F)F)cc1Oc1ccc(F)c(F)c1)c1ccccc1,IC50,[2],0.09 µM
COc1ccc(C(CCCN2CCOCC2)c2ccc(C)cc2)cc1 (configuration not stated),IC50,[1],20 µM
same,IC50,[2],16 µM
O=C(O)c1ccc(NS(=O)(=O)c2ccccc2)c(Oc2ccccc2)c1,IC50,[2],> 10 µM
O=S(=O)(Nc1ccc(S(=O)(=O)C(F)(F)F)cc1Oc1cccc(F)c1)c1ccccc1,IC50,[2],0.15 µM
O=S(=O)(Nc1ccc(S(=O)(=O)C(F)(F)F)cc1-c1ccccc1)c1ccccc1,IC50,[2],0.37 µM
O=C(c1ccccc1)c1cc(S(=O)(=O)C(F)(F)F)ccc1NS(=O)(=O)c1ccccc1,IC50,[2],0.6 µM
O=S(=O)(Nc1ccc(S(=O)(=O)C(F)(F)F)cc1OC1CCCCC1)c1ccccc1,IC50,[2],> 1 µM
O=[N+]([O-])c1ccc(NS(=O)(=O)c2ccccc2)c(Oc2ccccc2)c1,IC50,[2],0.2 µM
O=C(NO)c1ccc(NS(=O)(=O)c2ccccc2)c(Oc2ccccc2)c1,IC50,[2],> 10 µM
NC(=O)c1ccc(NS(=O)(=O)c2ccccc2)c(Oc2ccccc2)c1,IC50,[2],> 10 µM
O=S(=O)(Nc1ccc(S(=O)(=O)C(F)(F)F)cc1Oc1cccnc1)c1ccccc1,IC50,[2],> 1 µM
O=S(=O)(Nc1ccc(S(=O)(=O)C(F)F)cc1Oc1ccccc1)c1ccccc1,IC50,[2],> 10 µM
COc1cc(F)cc(Oc2cc(S(=O)(=O)C(F)(F)F)ccc2NS(=O)(=O)c2ccccc2)c1,IC50,[2],0.1 µM
O=S(=O)(Nc1ccc(-c2nn[nH]n2)cc1Oc1ccccc1)c1ccccc1,IC50,[2],> 10 µM
O=S(=O)(Nc1ccc(C(F)(F)F)cc1Oc1ccccc1)c1ccccc1,IC50,[2],> 10 µM
O=S(=O)(Nc1ccc(S(=O)(=O)C(F)(F)F)cc1Oc1ccc(C(F)(F)F)cc1)c1ccccc1,IC50,[2],0.52 µM
CCNC(=O)/C=C/c1cccc(Br)c1 [CINROMIDE],IC50,[1],0.28 µM
same,IC50,[2],0.37 µM
CS(=O)(=O)Nc1ccc([N+](=O)[O-])cc1Oc1ccccc1 [NIMESULIDE],IC50,[2],23 µM
CCc1ccc(CCOc2ccc(CC3SC(=O)NC3=O)cc2)nc1 (configuration not stated) [PIOGLITAZONE],Activity,[4],-36%
same,Activity,[12],6%
